In publication PMC6934184, “Selective DNA-PKcs inhibition extends the therapeutic index of localized radiotherapy and chemotherapy” (The Journal of Clinical Investigation, 2019):

Target: T1, LRRK2 I2020T (Homo sapiens, UniProt Q5S007, I2020T)
T1 construct: purchased Thermo Fisher Scientific (Life Technologies) SelectScreen
Assay: SelectScreen Adapta
Format: biochemical
In short: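 Percent values come from Thermo SelectScreen profiling of NU5455, combining activity and binding assays. CSF1R was run in Z'LYTE format at Km app ATP, and CAMK1 in Adapta format with ATP listed at 10.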

T1 sequence (Q5S007 whole entry I2020T): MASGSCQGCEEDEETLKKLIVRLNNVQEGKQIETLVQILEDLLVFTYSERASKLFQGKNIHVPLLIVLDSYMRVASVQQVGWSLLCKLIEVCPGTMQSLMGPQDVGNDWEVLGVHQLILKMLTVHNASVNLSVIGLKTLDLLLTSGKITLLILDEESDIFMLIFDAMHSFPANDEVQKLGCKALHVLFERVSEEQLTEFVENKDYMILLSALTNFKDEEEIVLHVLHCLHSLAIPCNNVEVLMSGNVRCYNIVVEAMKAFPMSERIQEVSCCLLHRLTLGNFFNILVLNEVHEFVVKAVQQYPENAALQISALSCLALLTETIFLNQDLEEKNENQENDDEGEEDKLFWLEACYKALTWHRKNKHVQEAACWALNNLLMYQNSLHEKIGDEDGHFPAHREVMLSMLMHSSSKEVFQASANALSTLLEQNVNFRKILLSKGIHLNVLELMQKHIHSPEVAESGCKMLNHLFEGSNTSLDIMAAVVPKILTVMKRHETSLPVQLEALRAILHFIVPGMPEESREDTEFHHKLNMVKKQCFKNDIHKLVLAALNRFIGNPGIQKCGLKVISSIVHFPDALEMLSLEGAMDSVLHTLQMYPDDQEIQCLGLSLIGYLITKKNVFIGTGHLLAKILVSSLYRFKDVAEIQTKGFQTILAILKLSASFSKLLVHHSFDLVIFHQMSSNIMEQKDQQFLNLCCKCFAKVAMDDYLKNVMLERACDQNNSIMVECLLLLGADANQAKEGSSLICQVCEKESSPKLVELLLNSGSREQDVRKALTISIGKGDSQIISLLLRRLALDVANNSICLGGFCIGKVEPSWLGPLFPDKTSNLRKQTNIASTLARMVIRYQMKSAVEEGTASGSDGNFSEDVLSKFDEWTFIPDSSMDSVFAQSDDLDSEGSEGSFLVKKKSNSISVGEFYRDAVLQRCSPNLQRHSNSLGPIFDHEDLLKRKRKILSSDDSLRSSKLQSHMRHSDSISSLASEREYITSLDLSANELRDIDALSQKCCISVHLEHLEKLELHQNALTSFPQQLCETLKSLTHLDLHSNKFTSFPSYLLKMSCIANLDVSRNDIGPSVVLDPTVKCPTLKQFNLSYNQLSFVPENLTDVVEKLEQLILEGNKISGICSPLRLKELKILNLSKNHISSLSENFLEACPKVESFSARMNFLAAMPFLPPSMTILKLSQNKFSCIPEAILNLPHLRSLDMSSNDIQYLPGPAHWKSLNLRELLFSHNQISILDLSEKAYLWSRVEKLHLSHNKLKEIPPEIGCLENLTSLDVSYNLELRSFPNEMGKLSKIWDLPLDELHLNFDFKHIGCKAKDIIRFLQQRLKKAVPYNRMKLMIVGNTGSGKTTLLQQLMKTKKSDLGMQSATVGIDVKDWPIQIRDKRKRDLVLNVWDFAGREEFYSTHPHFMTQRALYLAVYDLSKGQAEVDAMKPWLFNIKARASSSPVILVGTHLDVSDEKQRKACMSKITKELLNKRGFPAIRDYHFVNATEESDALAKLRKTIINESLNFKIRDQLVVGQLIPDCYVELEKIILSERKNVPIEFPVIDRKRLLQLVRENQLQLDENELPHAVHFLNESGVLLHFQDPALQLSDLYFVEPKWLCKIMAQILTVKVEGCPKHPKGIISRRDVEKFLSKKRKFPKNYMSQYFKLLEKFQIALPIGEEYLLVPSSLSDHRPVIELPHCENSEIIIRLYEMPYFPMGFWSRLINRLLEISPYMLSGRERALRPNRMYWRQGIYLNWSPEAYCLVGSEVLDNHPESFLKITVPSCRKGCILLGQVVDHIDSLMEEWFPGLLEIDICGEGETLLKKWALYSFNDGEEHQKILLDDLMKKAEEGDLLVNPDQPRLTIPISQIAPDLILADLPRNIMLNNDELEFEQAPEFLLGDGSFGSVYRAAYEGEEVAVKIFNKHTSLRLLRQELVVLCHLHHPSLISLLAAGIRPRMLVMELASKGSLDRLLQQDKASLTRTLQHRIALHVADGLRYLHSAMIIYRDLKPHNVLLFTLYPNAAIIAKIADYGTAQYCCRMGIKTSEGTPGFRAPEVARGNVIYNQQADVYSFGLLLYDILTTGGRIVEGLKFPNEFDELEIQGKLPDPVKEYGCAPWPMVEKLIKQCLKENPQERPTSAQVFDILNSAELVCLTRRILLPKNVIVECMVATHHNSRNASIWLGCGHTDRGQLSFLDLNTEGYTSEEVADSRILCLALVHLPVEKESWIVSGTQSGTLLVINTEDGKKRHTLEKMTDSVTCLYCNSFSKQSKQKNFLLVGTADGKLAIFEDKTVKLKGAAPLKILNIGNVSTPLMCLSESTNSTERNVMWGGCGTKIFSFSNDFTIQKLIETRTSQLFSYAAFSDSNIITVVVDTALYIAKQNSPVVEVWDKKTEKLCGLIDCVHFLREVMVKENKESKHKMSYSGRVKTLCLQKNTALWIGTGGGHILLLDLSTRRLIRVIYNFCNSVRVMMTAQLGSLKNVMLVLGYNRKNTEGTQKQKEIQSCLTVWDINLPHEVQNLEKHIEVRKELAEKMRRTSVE

CN(C(=O)CN1CCOCC1)c1ccc2sc3c(-c4cccc5c(=O)cc(N6CC7CCC(C6)O7)oc45)cccc3c2c1 [NU5455]
inhibition at 1 µM: -4%
